The text below walks through data of patent US20240408082A1, “METHODS FOR TREATING CANCERS AND TUMORS” (BEYONDSPRING PHARMACEUTICALS, INC., priority 2021, published 2024).

Holding throughout (format): cell-based
In one experiment the test system is SXFS 627. Description: 3D clonogenic assay, Example 1, SXFS 627. The note with it: model SXFS 627. The method, then: (§1) In the present study, plinabulin was characterized for its ability to inhibit anchorage independent growth and ex vivo colony formation of tumor cells in semi-solid medium. The compound was investigated in 87 out of 93 originally planned tumor xenografts representing all major cancer types using a 3D clonogenic assay in a 96-well format with colony count based on image analysis as read-out. By using this assay, the investigational compound was assessed for the ability to inhibit anchorage independent growth and ex vivo colony formation of tumor cells in semi-solid medium.
(§2) A master stock solution of plinabulin was prepared by dissolving the compound in DMSO at a concentration of 9.9 mM. Working stock solutions were prepared by diluting the master stock solution with DMSO to a concentration of 0.99 mM (330-fold the highest test concentration). Small aliquots of the master and working stock were stored at −20° C. […]
(§3) Plinabulin was investigated in 87 PDX models representing a number of cancer types. […] The percentage of viable cells was determined in a Neubauer-hemocytometer using trypan blue exclusion. […]
(§4) The clonogenic assay was carried out in a 96 well plate format using ultra low attachment plates. […] Cultures were incubated at 37° C. and 7.5% CO2 in a humidified atmosphere 13 days in total and monitored closely for colony growth using an inverted microscope. […]

In the next experiment the test system is small cell lung cancer. Description: 3D clonogenic assay, Example 1, small cell lung cancer. The conditions noted are these: n=7 models. On the procedure:
as §1, §2, §3, §4

The subject of the next experiment is BXF 2775. Description: 3D clonogenic assay, Example 1, BXF 2775. The conditions noted are these: model BXF 2775. On the procedure: as §1, §2, §3, §4

Consider `CC(C)(C)c1[nH]cnc1/C=c1\[nH]c(=O)/c(=C/c2ccccc2)[nH]c1=O` [plinabulin, (3Z,6Z)-3-Benzylidene-6-{[5-(2-methyl-2-propanyl)-1H-imidazol-4-yl]methylene}-2,5-piperazinedione], for which the “absolute IC70” value in the experiment on SXFS 627 and with BXF 2775 was 3 nM each time. Moreover, the “geom. mean absolute IC70” value in the experiment on small cell lung cancer turned out to be 35 nM.
